Assay results reported in ChEMBL document CHEMBL1201862, “PubChem BioAssay data set” (2004).
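Briefly, cells in 96-well plates were exposed to five compound concentrations for 48 h, and endpoints were estimated by linear interpolation. GI50 is the concentration that inhibits growth by half.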 Calls of active or inactive are those of the source. No stated cut-off is given here; in the data, active = GI50 up to about 1.1 µM and inactive = higher.

Assays:
Experiment in all cases: NCI-60 cell line screen, 48 h
[1] = test system: ACHN
[2] = test system: UO-31
[3] = test system: SNB-19
[4] = test system: M14
[5] = test system: KM12
[6] = test system: 786-0
[7] = test system: CAKI-1
[8] = test system: OVCAR-5
[9] = test system: RXF 393
[10] = test system: HCT-15
[11] = test system: MOLT-4
[12] = test system: SF-539
[13] = test system: SF-268
[14] = test system: LOX IMVI
[15] = test system: SK-MEL-2

Row | Structure (SMILES) | GI50 [1] | GI50 [2] | GI50 [3] | GI50 [4] | GI50 [5] | GI50 [6] | GI50 [7] | GI50 [8] | GI50 [9] | GI50 [10] | GI50 [11] | GI50 [12] | GI50 [13] | GI50 [14] | GI50 [15]
1 | Cc1cc(C(C)C)cc(=O)c(O)c1 | > 100 µM (inactive) | > 100 µM (inactive) | > 100 µM (inactive) | > 100 µM (inactive) | > 100 µM (inactive) | > 100 µM (inactive) | > 100 µM (inactive) | > 100 µM (inactive) | > 100 µM (inactive) | > 100 µM | > 100 µM (inactive) | > 100 µM (inactive) | > 100 µM (inactive) | > 100 µM (inactive) | 
2 | Cc1cc(Br)cc(C)c1NC(=O)C(=O)C(C(=O)c1ccc2ccccc2c1)C1OC(=O)c2ccccc21 (stereo not given) | 15.2 µM (inactive) | 15.8 µM (inactive) | 8 µM (inactive) | 15.6 µM (inactive) | 15.5 µM (inactive) | 6.03 µM (inactive) | 15.7 µM (inactive) | 7.14 µM (inactive) | 5.93 µM (inactive) | 17.3 µM | 2.31 µM (inactive) | 2.69 µM (inactive) | 7.98 µM (inactive) | 12.1 µM (inactive) | 16 µM (inactive)
3 | C/C(CC(=O)Nc1ccc([N+](=O)[O-])cc1)=N/N=C(N)N | > 100 µM (inactive) | > 100 µM (inactive) |  | > 100 µM (inactive) | > 100 µM (inactive) | > 100 µM (inactive) |  | > 100 µM (inactive) | > 100 µM (inactive) |  | > 100 µM (inactive) | > 100 µM (inactive) | > 100 µM (inactive) | > 100 µM (inactive) | > 100 µM (inactive)
4 | CCN1C(=O)C(N=[N+]=[N-])(c2ccccc2)C(=O)c2ccccc21 (stereo not given) | > 100 µM (inactive) | 43.7 µM (inactive) | > 100 µM (inactive) | 41.9 µM (inactive) | > 100 µM (inactive) | > 100 µM (inactive) | > 100 µM (inactive) | > 100 µM (inactive) | 99.1 µM (inactive) | 59.2 µM | 43.1 µM (inactive) | > 100 µM (inactive) | 83.2 µM (inactive) | > 100 µM (inactive) | > 100 µM (inactive)
5 | CCOP(=O)(C/C(=N/NC(C)(C)C)C(=O)Nc1nc2ccc(C)cc2s1)OCC | > 100 µM (inactive) | > 100 µM (inactive) | > 100 µM (inactive) | > 100 µM (inactive) | > 100 µM (inactive) | > 100 µM (inactive) | > 100 µM (inactive) | > 100 µM (inactive) | > 100 µM (inactive) | > 100 µM | > 100 µM (inactive) | > 100 µM (inactive) | > 100 µM (inactive) | > 100 µM (inactive) | > 100 µM (inactive)
6 | C[N+](C)(Cc1ccc(NC(=O)CCCC(=O)ON2C(=O)CCC2=O)cc1)c1ccccc1 | < 0.01 µM (active) | < 0.01 µM (active) | < 0.01 µM (active) | < 0.01 µM (active) | < 0.01 µM (active) | < 0.01 µM (active) | < 0.01 µM (active) | < 0.01 µM (active) | > 1 µM (active) | > 1 µM | < 0.01 µM (active) | < 0.01 µM (active) | < 0.01 µM (active) | < 0.01 µM (active) | 0.0234 µM (active)
7 | COc1ccc(CN2C(=O)C(Cc3cc(OC)c(OC)c(C)c3OC)N(C(=O)OC(C)C)C(=O)/C2=C/c2cc(OC)c(OC)c(C)c2OC)cc1 (stereo not given) | > 100 µM (inactive) | 16.6 µM (inactive) | > 100 µM (inactive) | > 100 µM (inactive) | > 100 µM (inactive) | > 100 µM (inactive) | > 100 µM (inactive) | > 100 µM (inactive) | 6.9 µM (inactive) |  | 5.94 µM (inactive) | > 100 µM (inactive) | > 100 µM (inactive) | > 100 µM (inactive) | 49.1 µM (inactive)
8 | O=C(NO)C(=O)Nc1cc(Cl)ccc1Cl | > 100 µM (inactive) | 22 µM (inactive) | > 100 µM (inactive) | > 100 µM (inactive) | > 100 µM (inactive) | > 100 µM (inactive) | 23.2 µM (inactive) | > 100 µM (inactive) | > 100 µM (inactive) | > 100 µM | 83.6 µM (inactive) | > 100 µM (inactive) | > 100 µM (inactive) | 16.8 µM (inactive) | > 100 µM (inactive)
9 | Cc1ccc(SSCCCS(=O)O)cc1 | 37.4 µM (inactive) | 23.5 µM (inactive) | 49.7 µM (inactive) | 38.6 µM (inactive) | 28.8 µM (inactive) | 40.4 µM (inactive) | 38.7 µM (inactive) | 74.6 µM (inactive) | 18.8 µM (inactive) | 29.2 µM | 15.2 µM (inactive) | 20.7 µM (inactive) | 12.2 µM (inactive) | 11.4 µM (inactive) | 37.1 µM (inactive)
10 | CC(=O)/C(=N\O)C(=O)NCCc1ccccc1 | > 100 µM (inactive) | > 100 µM (inactive) | > 100 µM (inactive) | > 100 µM (inactive) | 58.3 µM (inactive) | 68.2 µM (inactive) | > 100 µM (inactive) | > 100 µM (inactive) | 64.7 µM (inactive) | 41.1 µM | > 100 µM (inactive) | > 100 µM (inactive) | > 100 µM (inactive) | 41.8 µM (inactive) | > 100 µM (inactive)
